Assay: Treatment-emergent adverse events, three Phase 3 double-blind studies, LMTM pooled safety population
Type: in vivo, human
From the text: Three Phase 3, double-blind, controlled studies of LMTM have been completed (one each in subjects with mild and mild to moderate AD and one in subjects with bvFTD). Results of the AD studies have been published (Gauthier et al., 2016; Wilcock et al., 2018).
In these three studies, 1897 subjects received at least one dose of LMTM (Safety Population [Five additional subjects with AD, participating at one site in Study TRx-237-005, received a dose of study drug but were excluded from all analyses due to GCP violations], 1679 subjects with AD and 218 subjects with bvFTD). Of these, 860 subjects received the control (LMTM 8 mg/day, 750 with AD and 110 with bvFTD) and 1037 subjects received at least one dose of LMTM in the higher doses of 150 to 250 mg/day (929 with AD and 108 with bvFTD).
The incidence of the most common TEAEs are summarised by dose in the following Table EX1. This includes TEAEs that occurred at an incidence of ≥2.0% either in subjects randomised to LMTM 8 mg/day or higher doses (150 to 250 mg/day). The subset of TEAEs that were severe in intensity are also included.
The TEAEs are further analysed by using groupings of related MedDRA (Medical Dictionary for Regulatory Activities) preferred terms to better estimate the incidence of potentially treatment related adverse events. The incidence of all groupings for subjects categorised by dose (8 mg/day versus higher doses of 150 to 250 mg/day) is shown in the following Table EX2: […]

[1] = Higher Doses (150-250 mg/day) (N = 1037)
[2] = Higher Doses (150-250 mg/day) (N = 1037), All
[3] = Higher Doses (150-250 mg/day) (N = 1037), Severe Intensity

## CN(C)c1ccc2c(c1)Sc1cc(N(C)C)ccc1N2 [LMTM, leuco-methylthioninium bis(hydromethanesulfonate)]
[1]
  Grouped TEAE incidence: Affective/Anxiety Symptoms: 55 (5.3%) n (%)
  Grouped TEAE incidence: Anaemia: 219 (21.1%) n (%)
  Grouped TEAE incidence: Behavioral Symptoms: 118 (11.4%) n (%)
  Grouped TEAE incidence: Falls and Related Terms: 202 (19.5%) n (%)
  Grouped TEAE incidence: Hepatic Function Impairment: 34 (3.3%) n (%)
  Grouped TEAE incidence: Hypersensitivity: 63 (6.1%) n (%)
  Grouped TEAE incidence: Ischaemic Events, Inclusive of Myocardial Infarction: 35 (3.4%) n (%)
  Grouped TEAE incidence: Psychotic Symptoms: 34 (3.3%) n (%)
  Grouped TEAE incidence: Renal Function Impairment: 42 (4.1%) n (%)
  Grouped TEAE incidence: Renal and Urinary Disorders (Including Infections): 326 (31.4%) n (%)
  Grouped TEAE incidence: Sleep Disorders: 48 (4.6%) n (%)
  Grouped TEAE incidence: Targeted Gastrointestinal Events: 401 (38.7%) n (%)
[2]
  No. (%) of Subjects Reporting at Least One TEAE: 902 (87.0%) n (%)
  TEAE incidence: Abdominal pain: 30 (2.9%) n (%)
  TEAE incidence: Abdominal pain upper: 21 (2.0%) n (%)
  TEAE incidence: Agitation: 61 (5.9%) n (%)
  TEAE incidence: Anaemia: 59 (5.7%) n (%)
  TEAE incidence: Anxiety: 39 (3.8%) n (%)
  TEAE incidence: Arthralgia: 31 (3.0%) n (%)
  TEAE incidence: Atrial fibrillation: 10 (1.0%) n (%)
  TEAE incidence: Back pain: 44 (4.2%) n (%)
  TEAE incidence: Blood creatine phosphokinase increased: 31 (3.0%) n (%)
  TEAE incidence: Blood folate decreased: 76 (7.3%) n (%)
  TEAE incidence: Bronchitis: 19 (1.8%) n (%)
  TEAE incidence: Cerebral microhaemorrhage: 16 (1.5%) n (%)
  TEAE incidence: Confusional state: 45 (4.3%) n (%)
  TEAE incidence: Constipation: 24 (2.3%) n (%)
  TEAE incidence: Contusion: 15 (1.4%) n (%)
  TEAE incidence: Cough: 42 (4.1%) n (%)
  TEAE incidence: Decreased appetite: 39 (3.8%) n (%)
  TEAE incidence: Dehydration: 18 (1.7%) n (%)
  TEAE incidence: Depression: 37 (3.6%) n (%)
  TEAE incidence: Diarrhoea: 278 (26.8%) n (%)
  TEAE incidence: Dizziness: 64 (6.2%) n (%)
  TEAE incidence: Dysuria: 75 (7.2%) n (%)
  TEAE incidence: Fall: 78 (7.5%) n (%)
  TEAE incidence: Fatigue: 38 (3.7%) n (%)
  TEAE incidence: Folate deficiency: 45 (4.3%) n (%)
  TEAE incidence: Haemoglobin decreased: 34 (3.3%) n (%)
  TEAE incidence: Hallucination: 21 (2.0%) n (%)
  TEAE incidence: Headache: 61 (5.9%) n (%)
  TEAE incidence: Hypertension: 22 (2.1%) n (%)
  TEAE incidence: Insomnia: 32 (3.1%) n (%)
  TEAE incidence: Laceration: 14 (1.4%) n (%)
  TEAE incidence: Micturition urgency: 35 (3.4%) n (%)
  TEAE incidence: Nasopharyngitis: 43 (4.1%) n (%)
  TEAE incidence: Nausea: 86 (8.3%) n (%)
  TEAE incidence: Oedema peripheral: 20 (1.9%) n (%)
  TEAE incidence: Pain in extremity: 17(1.6%) n (%)
  TEAE incidence: Pollakiuria: 71 (6.8%) n (%)
  TEAE incidence: Rash: 30 (2.9%) n (%)
  TEAE incidence: Suicidal ideation: 30 (2.9%) n (%)
  TEAE incidence: Syncope: 28 (2.7%) n (%)
  TEAE incidence: Tremor: 13 (1.3%) n (%)
  TEAE incidence: Upper respiratory tract infection: 34 (3.3%) n (%)
  TEAE incidence: Urinary incontinence: 63 (6.1%) n (%)
  TEAE incidence: Urinary tract infection: 116 (11.2%) n (%)
  TEAE incidence: Vitamin B12 decreased: 21 (2.0%) n (%)
  TEAE incidence: Vomiting: 80 (7.7%) n (%)
  TEAE incidence: Weight decreased: 39 (3.8%) n (%)
[3]
  No. (%) of Subjects Reporting at Least One TEAE: 126 (12.2%) n (%)
  TEAE incidence: Abdominal pain: 1 (0.1%) n (%)
  TEAE incidence: Abdominal pain upper: 0 n (%)
  TEAE incidence: Agitation: 7 (0.7%) n (%)
  TEAE incidence: Anaemia: 0 n (%)
  TEAE incidence: Anxiety: 2 (0.2%) n (%)
  TEAE incidence: Arthralgia: 1 (0.1%) n (%)
  TEAE incidence: Atrial fibrillation: 2 (0.2%) n (%)
  TEAE incidence: Back pain: 2 (0.2%) n (%)
  TEAE incidence: Blood creatine phosphokinase increased: 0 n (%)
  TEAE incidence: Blood folate decreased: 0 n (%)
  TEAE incidence: Bronchitis: 0 n (%)
  TEAE incidence: Cerebral microhaemorrhage: 0 n (%)
  TEAE incidence: Confusional state: 2 (0.2%) n (%)
  TEAE incidence: Constipation: 1 (0.1%) n (%)
  TEAE incidence: Contusion: 0 n (%)
  TEAE incidence: Cough: 0 n (%)
  TEAE incidence: Decreased appetite: 1 (0.1%) n (%)
  TEAE incidence: Dehydration: 2 (0.2%) n (%)
  TEAE incidence: Depression: 2 (0.2%) n (%)
  TEAE incidence: Diarrhoea: 14 (1.4%) n (%)
  TEAE incidence: Dizziness: 2 (0.2%) n (%)
  TEAE incidence: Dysuria: 1 (0.1%) n (%)
  TEAE incidence: Fall: 7 (0.7%) n (%)
  TEAE incidence: Fatigue: 1 (0.1%) n (%)
  TEAE incidence: Folate deficiency: 0 n (%)
  TEAE incidence: Haemoglobin decreased: 0 n (%)
  TEAE incidence: Hallucination: 4 (0.4%) n (%)
  TEAE incidence: Headache: 3 (0.3%) n (%)
  TEAE incidence: Hypertension: 1 (0.1%) n (%)
  TEAE incidence: Insomnia: 0 n (%)
  TEAE incidence: Laceration: 1 (0.1%) n (%)
  TEAE incidence: Micturition urgency: 0 n (%)
  TEAE incidence: Nasopharyngitis: 0 n (%)
  TEAE incidence: Nausea: 1 (0.1%) n (%)
  TEAE incidence: Oedema peripheral: 0 n (%)
  TEAE incidence: Pain in extremity: 0 n (%)
  TEAE incidence: Pollakiuria: 2 (0.2%) n (%)
  TEAE incidence: Rash: 0 n (%)
  TEAE incidence: Suicidal ideation: 0 n (%)
  TEAE incidence: Syncope: 5 (0.5%) n (%)
  TEAE incidence: Tremor: 0 n (%)
  TEAE incidence: Upper respiratory tract infection: 0 n (%)
  TEAE incidence: Urinary incontinence: 1 (0.1%) n (%)
  TEAE incidence: Urinary tract infection: 3 (0.3%) n (%)
  TEAE incidence: Vitamin B12 decreased: 0 n (%)
  TEAE incidence: Vomiting: 3 (0.3%) n (%)
  TEAE incidence: Weight decreased: 0 n (%)
LMTM 8 mg/day (N = 860)
  Grouped TEAE incidence: Affective/Anxiety Symptoms: 60 (7.0%) n (%)
  Grouped TEAE incidence: Anaemia: 111 (12.9%) n (%)

— patent US12263175B2, “Optimised dosage of diaminophenothiazines in populations” (WisTa Laboratories Ltd., priority 2018, dated 2025)
